Test results from ChEMBL document CHEMBL1255199, “Endochin optimization: structure-activity and structure-property relationship studies of 3-substituted 2-methyl-4(1H)-quinolones with antimalarial activity” (J Med Chem, 2010).
In brackets after ≈: the same amount, converted by molar mass.

What was measured:
[1] = tested on: Plasmodium falciparum; assay: Antimalarial activity against chloroquine, mefloquine, pyrimethamine and atovaquone-resistant Plasmodium falciparum TM90-C2B infected in human A+ erythrocytes after 72 hrs by SYBR Green I assay; assay type: functional, organism-based
[2] = tested on: Plasmodium falciparum; assay: Antimalarial activity against chloroquine and pyrimethamine-resistant Plasmodium falciparum W2 infected in human A+ erythrocytes after 72 hrs by SYBR Green I assay; assay type: functional, organism-based; conditions: W2, 72 h
[3] = tested on: J774; assay: Cytotoxicity against mouse J774 cells; assay type: cell-based
[4] = Lipophilicity, log D of the compound at pH 7.4; conditions: buffer
[5] = Passive transcellular permeability of the compound at pH 7.4 by PAMPA; assay type: ADME; conditions: read-out: permeability
[6] = Passive transcellular permeability of the compound at pH 4 by PAMPA; assay type: ADME; conditions: for Papp: read-out: permeability
[7] = in vitro; conditions: mouse, J774 cells
Description: Cytotoxicity index, ratio of EC50 for mice (Mus musculus) J774 cells to EC50 for chloroquine, mefloquine, pyrimethamine and atovaquone-resistant Plasmodium falciparum TM90-C2B

[8] = physchem; conditions: aqueous, pH 7.4
Description: Aqueous solubility of the compound at pH 7.4 by HPLC analysis

[9] = Half life in mouse liver microsomes; assay type: ADME, Microsome
[10] = Half life in human liver microsomes; assay type: ADME, Microsome

Compound: CCCCC#Cc1c(C)[nH]c2ccc(F)cc2c1=O
- EC50 [1]: > 9640 nM
- EC50 [2]: > 9640 nM
- EC50 [3]: > 38600 nM
- logD [4]: 5.64
- Papp [5]: 495 ×10⁻⁶ cm/s
- Papp [6]: 314 ×10⁻⁶ cm/s
- selectivity ratio [7]: > 4
- solubility [8]: 2 µM (≈ 0.515 µg/mL)

Compound: COc1cc2[nH]c(C)c(C3CCCCC3)c(=O)c2cc1Cl
- EC50 [1]: 397 nM
- EC50 [2]: 237 nM
- EC50 [3]: > 32700 nM
- logD [4]: 3.04
- Papp [5]: 630 ×10⁻⁶ cm/s
- permeability [6]: 1235.85 ×10⁻⁶ cm/s
- selectivity ratio [7]: > 82.3
- solubility [8]: 5 µM (≈ 1.53 µg/mL)

Compound: COc1ccc2[nH]c(C)c(Cc3ccccc3)c(=O)c2c1
- EC50 [1]: 23700 nM
- EC50 [2]: > 8950 nM
- EC50 [3]: > 23700 nM
- logD [4]: 2.53
- Papp [5]: 188 ×10⁻⁶ cm/s
- Papp [6]: 167 ×10⁻⁶ cm/s
- selectivity ratio [7]: > 1
- solubility [8]: 2 µM (≈ 0.559 µg/mL)

Compound: C=C(CCCCC)c1c(C)[nH]c2cc(OC)c(Cl)cc2c1=O
- EC50 [1]: 14.8 nM
- EC50 [2]: 39.4 nM
- EC50 [3]: 18900 nM
- logD [4]: 3.58
- Papp [5]: 755 ×10⁻⁶ cm/s
- Papp [6]: 768 ×10⁻⁶ cm/s
- selectivity ratio [7]: 1280
- solubility [8]: 2 µM (≈ 0.64 µg/mL)

Compound: COc1cc2[nH]c(C)c(-c3ccccc3)c(=O)c2cc1F
- EC50 [1]: 83 nM
- EC50 [2]: 167 nM
- EC50 [3]: > 35300 nM
- logD [4]: 1.72
- Papp [5]: 124 ×10⁻⁶ cm/s
- Papp [6]: 192 ×10⁻⁶ cm/s
- selectivity ratio [7]: > 425
- solubility [8]: 5 µM (≈ 1.42 µg/mL)

Compound: Cc1[nH]c2ccc(Cl)cc2c(=O)c1-c1ccccc1
- EC50 [1]: 777 nM
- EC50 [2]: 244 nM
- EC50 [3]: > 37100 nM
- logD [4]: 2.43
- Papp [5]: 108 ×10⁻⁶ cm/s
- Papp [6]: 111 ×10⁻⁶ cm/s
- selectivity ratio [7]: > 47.7
- solubility [8]: 5 µM (≈ 1.35 µg/mL)

Compound: Cc1[nH]c2cccc(Cl)c2c(=O)c1-c1ccccc1
- EC50 [1]: 4740 nM
- EC50 [2]: 5060 nM
- EC50 [3]: > 37100 nM
- logD [4]: 1.88
- Papp [5]: 99.6 ×10⁻⁶ cm/s
- Papp [6]: 91 ×10⁻⁶ cm/s
- selectivity ratio [7]: > 7.8
- solubility [8]: 10 µM (≈ 2.7 µg/mL)

Compound: Cc1[nH]c2cccc(Cl)c2c(=O)c1Cc1ccccc1
- EC50 [1]: 5260 nM
- EC50 [2]: 630 nM
- EC50 [3]: > 35200 nM
- logD [4]: 2.65
- Papp [5]: 251 ×10⁻⁶ cm/s
- Papp [6]: 244 ×10⁻⁶ cm/s
- selectivity ratio [7]: > 6.7
- solubility [8]: 2 µM (≈ 0.568 µg/mL)

Compound: Cc1[nH]c2ccccc2c(=O)c1C1CCCCC1
- EC50 [1]: 2230 nM
- EC50 [2]: 591 nM
- EC50 [3]: > 41400 nM
- logD [4]: 2.45
- Papp [5]: 230 ×10⁻⁶ cm/s
- Papp [6]: 260 ×10⁻⁶ cm/s
- selectivity ratio [7]: > 18.6
- solubility [8]: 10 µM (≈ 2.41 µg/mL)

Compound: Cc1[nH]c2ccccc2c(=O)c1Br
- EC50 [1]: 77.6 nM
- EC50 [2]: 453 nM
- EC50 [3]: > 42000 nM
- logD [4]: 1.67
- Papp [5]: 13.6 ×10⁻⁶ cm/s
- Papp [6]: 8.19 ×10⁻⁶ cm/s
- selectivity ratio [7]: > 542
- solubility [8]: > 20 µM

Compound: Cc1[nH]c2cc(Cl)ccc2c(=O)c1Cc1ccccc1
- EC50 [1]: 15700 nM
- EC50 [2]: 2170 nM
- EC50 [3]: > 35200 nM
- logD [4]: 2.69
- Papp [5]: 392 ×10⁻⁶ cm/s
- Papp [6]: 341 ×10⁻⁶ cm/s
- selectivity ratio [7]: > 2.2
- solubility [8]: < 2 µM

Compound: Cc1[nH]c2c(Cl)cccc2c(=O)c1Cc1ccccc1
- EC50 [1]: > 8810 nM
- EC50 [2]: > 8810 nM
- EC50 [3]: > 35200 nM
- logD [4]: 2.78
- Papp [5]: 412 ×10⁻⁶ cm/s
- Papp [6]: 430 ×10⁻⁶ cm/s
- selectivity ratio [7]: > 4
- solubility [8]: 5 µM (≈ 1.42 µg/mL)

Compound: COc1cccc2c(=O)c(Cc3ccccc3)c(C)[nH]c12
- EC50 [1]: > 5450 nM
- EC50 [2]: > 2240 nM
- EC50 [3]: > 35800 nM
- logD [4]: 2.24
- Papp [5]: 125 ×10⁻⁶ cm/s
- Papp [6]: 164 ×10⁻⁶ cm/s
- selectivity ratio [7]: > 6.5
- solubility [8]: > 20 µM

Compound: CCCCCCCc1c(C)nc2cc(OC)ccc2c1O
- EC50 [1]: 46.6 nM
- EC50 [2]: 8.59 nM
- EC50 [3]: > 34800 nM
- logD [4]: 3.69
- Papp [5]: 679 ×10⁻⁶ cm/s
- permeability [6]: 1019.9 ×10⁻⁶ cm/s
- half-life [9]: 7.9 min
- half-life [10]: 10.2 min
- selectivity ratio [7]: > 747
- solubility [8]: 2 µM (≈ 0.575 µg/mL)

Compound: Cc1[nH]c2ccccc2c(=O)c1/C=C/c1cccc([N+](=O)[O-])c1
- EC50 [1]: 1490 nM
- EC50 [2]: 4600 nM
- EC50 [3]: > 32600 nM
- logD [4]: 2.95
- Papp [5]: 602 ×10⁻⁶ cm/s
- Papp [6]: 508 ×10⁻⁶ cm/s
- selectivity ratio [7]: > 21.9
- solubility [8]: < 2 µM
